Data as given in ChEMBL document CHEMBL5034015, “Structure-Based Optimization of 3-Phenyl-N-(2-(3-phenylureido)ethyl)thiophene-2-sulfonamide Derivatives as Selective Mcl-1 Inhibitors” (J Med Chem, 2021).
Calls of active or inactive are those of the source.

How the values were obtained:
Bcl-2-like protein 1 [1] = biological target: T1, Bcl-2-like protein 1 (Homo sapiens, UniProt Q07817); assay: Inhibition of biotinylated Bim BH3 peptide binding to GST-tagged human Bcl-xl expressed in Escherichia coli BL21 (DE3) incubated for 1 hr by ELISA
T1 sequence (Q07817 whole entry): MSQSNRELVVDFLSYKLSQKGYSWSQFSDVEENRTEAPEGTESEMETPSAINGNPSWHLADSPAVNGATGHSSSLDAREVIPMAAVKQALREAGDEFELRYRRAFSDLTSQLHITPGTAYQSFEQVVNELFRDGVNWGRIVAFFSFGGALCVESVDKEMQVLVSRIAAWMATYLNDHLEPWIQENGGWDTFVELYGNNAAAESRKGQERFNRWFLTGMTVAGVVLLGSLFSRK

HEK-293T = assay: Cytotoxicity against HEK293T cells assessed as reduction in cell viability incubated for 48 hrs by CCK8 assay; settings: Homo sapiens
RS4-11 [2] = assay: cells; settings: Homo sapiens, RS4-11, 48 h
Description: Cytotoxicity against human RS4-11 cells assessed as inhibition of cell growth incubated for 48 hrs by CCK8 assay

HeLa = assay: cells; settings: Homo sapiens, 48 h
Description: Cytotoxicity against human HeLa cells assessed as inhibition of cell growth incubated for 48 hrs by CCK8 assay

Bcl-2-like protein 1 [3] = biological target: T1, Bcl-2-like protein 1; assay: Binding affinity to full length human Bcl-xl expressed in Escherichia coli BL21 (DE3) at up to 100 uM preincubated for 30 mins followed by 5-FAM-QEDIIIINIARHLAQVGDSMD-RSIPPG tracer addition and measured after 20 mins by fluorescence polarization assay; settings: dose microM <=100, time 50.0 min
[4] = biological target: T2, Apoptosis regulator Bcl-2 (Homo sapiens, UniProt P10415); assay: Binding affinity to full length human Bcl-2 expressed in Escherichia coli BL21 (DE3) at up to 100 uM preincubated for 30 mins followed by 5-FAM-QEDIIIINIARHLAQVGDSMD-RSIPPG tracer addition and measured after 20 mins by fluorescence polarization assay; settings: dose microM <=100, time 50.0 min
T2 sequence (P10415 whole entry): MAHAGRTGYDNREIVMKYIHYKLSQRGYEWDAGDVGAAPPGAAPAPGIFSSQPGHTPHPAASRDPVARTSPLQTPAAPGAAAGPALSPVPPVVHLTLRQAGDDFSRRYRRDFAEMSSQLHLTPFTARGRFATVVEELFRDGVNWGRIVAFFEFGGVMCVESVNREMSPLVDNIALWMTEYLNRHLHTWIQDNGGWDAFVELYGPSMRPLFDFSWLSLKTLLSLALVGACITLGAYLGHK

HL-60 [5] = assay: Cytotoxicity against human HL-60 cells assessed as cell viability at 20 uM incubated for 48 hrs by CCK8 assay relative to control; format: functional; settings: read-out: Activity
[6] = biological target: T3, Induced myeloid leukemia cell differentiation protein Mcl-1 (Homo sapiens, UniProt Q07820); assay: Binding affinity to full length human MCL1 expressed in Escherichia coli BL21 (DE3) assessed as inhibition constant preincubated for 30 mins followed by 5-FAM-QEDIIIINIARHLAQVGDSMD-RSIPPG tracer addition and measured after 20 mins by fluorescence polarization assay
T3 sequence (Q07820 whole entry): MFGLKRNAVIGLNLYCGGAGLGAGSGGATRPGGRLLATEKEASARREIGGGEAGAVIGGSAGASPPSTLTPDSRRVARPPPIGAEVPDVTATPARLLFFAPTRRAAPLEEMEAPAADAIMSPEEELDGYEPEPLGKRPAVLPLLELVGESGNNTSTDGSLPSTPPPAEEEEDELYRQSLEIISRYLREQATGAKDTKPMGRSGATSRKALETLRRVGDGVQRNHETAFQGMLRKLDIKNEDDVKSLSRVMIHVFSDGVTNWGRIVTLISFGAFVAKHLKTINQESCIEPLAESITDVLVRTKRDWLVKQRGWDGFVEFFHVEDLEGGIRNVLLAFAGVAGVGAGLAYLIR

RS4-11 [7] = assay: Induction of apoptosis in human RS4-11 cells assessed as viable cells at 1 uM measured after 24 hrs by Annexin V/7-AAD and MitoSense Red staining based flow cytometry analysis relative to control (reference value: 94.15 %); format: functional; settings: read-out: Activity
RS4-11 [8] = assay: Induction of apoptosis in human RS4-11 cells assessed as increase in cleaved caspase 9 expression incubated for 48 hrs by western blot analysis; format: functional, cell-based
RS4-11 [9] = assay: Induction of apoptosis in human RS4-11 cells assessed as early apoptotic cells at 1 uM measured after 24 hrs by Annexin V/7-AAD and MitoSense Red staining based flow cytometry analysis relative to control (reference value: 3.75 %); format: functional
[10] = biological target: T3, Induced myeloid leukemia cell differentiation protein Mcl-1; assay: Binding affinity to full length human MCL1 expressed in Escherichia coli BL21 (DE3) at up to 100 uM preincubated for 30 mins followed by 5-FAM-QEDIIIINIARHLAQVGDSMD-RSIPPG tracer addition and measured after 20 mins by fluorescence polarization assay; settings: dose microM <=100, time 50.0 min
RS4-11 [11] = assay: Induction of apoptosis in human RS4-11 cells assessed as late apoptotic cells at 1 uM measured after 24 hrs by Annexin V/7-AAD and MitoSense Red staining based flow cytometry analysis relative to control (reference value: 0.99 %); format: functional
RS4-11 [12] = assay: Induction of apoptosis in human RS4-11 cells assessed as increase in cleaved caspase 3 expression incubated for 48 hrs by western blot analysis; format: functional, cell-based
RS4-11 [13] = assay: Induction of apoptosis in human RS4-11 cells assessed as necrotic cells at 1 uM measured after 24 hrs by Annexin V/7-AAD and MitoSense Red staining based flow cytometry analysis relative to control (reference value: 1.11 %); format: functional
RS4-11 [14] = assay: Induction of apoptosis in human RS4-11 cells assessed as increase in cleaved PARP expression incubated for 48 hrs by western blot analysis; format: functional, cell-based
Bcl-2-like protein 1 [15] = biological target: T1, Bcl-2-like protein 1; assay: Inhibition of FITC-labeled BH3 peptide binding to Bcl-xl (unknown origin) expressed in Escherichia coli BL21 (DE3) incubated for 0.5 hrs by TR-FRET assay
[16] = biological target: Induced myeloid leukemia cell differentiation protein Mcl-1/Bcl-2-like protein 11 (Homo sapiens) (UniProt Q07820+O43521); assay: Inhibition of MCL1/Bim interaction in human MCF7 cells assessed as disruption of MCL1/Bim complex at 10 uM measured after 24 hrs by co-immunoprecipitation based western blot analysis relative to control; format: cell-based
Induced myeloid leukemia cell differentiation protein Mcl-1/Bcl-2-like protein 11 (Homo sapiens), sequence (O43521 whole entry, looked up): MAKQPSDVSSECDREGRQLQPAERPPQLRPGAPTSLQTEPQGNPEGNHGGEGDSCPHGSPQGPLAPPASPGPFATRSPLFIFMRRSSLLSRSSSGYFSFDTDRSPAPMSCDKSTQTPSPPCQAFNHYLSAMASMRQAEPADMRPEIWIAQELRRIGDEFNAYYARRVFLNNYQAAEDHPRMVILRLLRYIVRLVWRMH
Induced myeloid leukemia cell differentiation protein Mcl-1/Bcl-2-like protein 11 (Homo sapiens), sequence (Q07820 whole entry, looked up): as the sequence (Q07820 whole entry) above

[17] = biological target: T3, Induced myeloid leukemia cell differentiation protein Mcl-1; assay: Binding affinity to full length human MCL1 expressed in Escherichia coli BL21 (DE3) at 100 uM preincubated for 30 mins followed by 5-FAM-QEDIIIINIARHLAQVGDSMD-RSIPPG tracer addition and measured after 20 mins by fluorescence polarization assay relative to control; settings: time 50.0 min
[18] = biological target: T2, Apoptosis regulator Bcl-2; assay: Binding affinity to full length human Bcl-2 expressed in Escherichia coli BL21 (DE3) at 100 uM preincubated for 30 mins followed by 5-FAM-QEDIIIINIARHLAQVGDSMD-RSIPPG tracer addition and measured after 20 mins by fluorescence polarization assay relative to control; settings: time 50.0 min
HL-60 [19] = assay: cells; settings: Homo sapiens, HL-60, 48 h
Description: Cytotoxicity against human HL-60 cells assessed as inhibition of cell growth incubated for 48 hrs by CCK8 assay

Bcl-2-like protein 1 [20] = biological target: T1, Bcl-2-like protein 1; assay: Binding affinity to full length human Bcl-xl expressed in Escherichia coli BL21 (DE3) at 100 uM preincubated for 30 mins followed by 5-FAM-QEDIIIINIARHLAQVGDSMD-RSIPPG tracer addition and measured after 20 mins by fluorescence polarization assay relative to control; settings: time 50.0 min

Compound: O=C(c1ccccc1O)c1[nH]c(Cl)c(Cl)c1-n1c(C(=O)c2ccccc2O)cc(Cl)c1Cl
- IC50 (Bcl-2-like protein 1 [1]): > 80 µM

Compound: CC(C)c1ccc(Oc2ccc(O)c(O)c2)c(-c2ccsc2S(=O)(=O)NCCNC(=O)Nc2cc(C(F)(F)F)cc(C(F)(F)F)c2)c1
- IC50 (HEK-293T): > 20 µM
- IC50 (RS4-11 [2]): 6.8 µM
- IC50 (HeLa): > 50 µM
- Activity (Bcl-2-like protein 1 [3]): inactive
- Activity [4]: inactive
- viability at 20 µM (HL-60 [5]): 23%
- Ki [6]: 0.36 µM

Compound: CC1(C)CCC(CN2CCN(c3ccc(C(=O)NS(=O)(=O)c4ccc(NCC5CCOCC5)c([N+](=O)[O-])c4)c(Oc4cnc5[nH]ccc5c4)c3)CC2)=C(c2ccc(Cl)cc2)C1 [VENETOCLAX]
- viability at 1 µM (RS4-11 [7]): 0.45%
- Activity (RS4-11 [8]): Dose-Dependent Effect
- Activity (RS4-11 [9]): 10.75%
- Activity [10]: inactive
- Activity (RS4-11 [11]): 88.54%
- Activity (RS4-11 [12]): Dose-Dependent Effect
- Activity (RS4-11 [13]): 0.26%
- Activity (RS4-11 [14]): Dose-Dependent Effect

Compound: Cc1cc(OCCCc2c3n(c4c(-c5c(C)nn(C)c5C)c(Cl)ccc24)CCCN(c2cc(C(=O)O)c4ccn(C)c4c2)C3=O)cc(C)c1Cl
- Ki (Bcl-2-like protein 1 [15]): > 10 µM

Compound: COc1ccc(Oc2ccc([N+](=O)[O-])cc2-c2ccsc2S(=O)(=O)N2CCN(C(=S)Nc3ccc(Cl)cc3)CC2)cc1OC
- IC50 (HEK-293T): > 50 µM
- inhibition [16]: 30%
- IC50 (RS4-11 [2]): > 50 µM
- IC50 (HeLa): > 50 µM
- inhibition [17]: 41%
- inhibition [18]: 18%
- IC50 (HL-60 [19]): > 50 µM
- inhibition (Bcl-2-like protein 1 [20]): 37%
